Measurements from article PMC5290327, “SC83288 is a clinical development candidate for the treatment of severe malaria” (Nature Communications, 2017).
≈ marks a conversion by molar mass, not a printed value. Read-outs that look alike come from different tables or passages of the source.

Key:
P. falciparum strain K1 = test: microbe, parasite or virus in culture; format: cell-based; settings: Plasmodium falciparum
P. falciparum strain Dd2 = test: Growth inhibition assay, asexual blood stages; format: cell-based, Plasmodium falciparum
[1] = tested on: P. falciparum strain Thai19; test: Growth inhibition assay; format: cell-based; settings: Plasmodium falciparum
P. falciparum strain 3D7 = test: Growth inhibition assay; format: cell-based; settings: Plasmodium falciparum
[2] = tested on: P. falciparum strain FCR3; test: Growth inhibition assay; format: cell-based; settings: Plasmodium falciparum
P. falciparum strain 7G8 = test: microbe, parasite or virus in culture; format: cell-based; settings: Plasmodium falciparum
P. falciparum strain D10 = test: Growth inhibition assay; format: cell-based; settings: Plasmodium falciparum
[3] = In vitro metabolism in liver microsomes; settings: Monkey
[4] = In vitro metabolism in liver microsomes; settings: SC83288 metabolites, Mouse
[5] = In vitro metabolism in liver microsomes; settings: Dog
[6] = In vitro metabolism in liver microsomes; settings: Rat
[7] = In vitro metabolism in liver microsomes; settings: Human
Solubility in water = settings: for Solubility in H2O: Supplementary Table 2
CACO 2 cells = test: Permeability assay; format: in vitro ADME; settings: Supplementary Table 2
Method: The study was conducted by Cyprotex (Macclesfield, United Kingdom). CACO 2 cells (Sigma-Aldrich, catalogue: 86010202) were seeded on Millipore Millicell plates and formed a confluent monolayer over 20 days before the experiment. On day 20, the tested compounds at a final concentration of 10 μM were added to the apical side of the membrane. The transport of the compound across the monolayer was monitored over a 2 h period by liquid chromatography (LC)–MS/MS quantification. The permeability coefficient (Papp) was calculated from the following equation: [drawing 1] , where dQ/dt is the rate of permeation of the drug across the cells, C0 the donor compartment concentration at time zero and A the area of the cell monolayer. C0 was obtained from analysis of the dosing solution at the start of the experiment.

Plasmodium vinckei = test: Rodent malaria model; format: in vivo; settings: P. vinckei
Source text: The two SC compounds were also active in the Plasmodium vinckei rodent malaria model system.

[8] = tested on: Dd2 P. falciparum parasites; test: In vitro parasite reduction ratio assay (Sanz protocol); format: cell-based, Plasmodium falciparum
[9] = Plasmodium falciparum, DD2, strain Dd2, Supplementary Table 3
[10] = Supplementary Table 2, read-out: In vitro IC50
[11] = Supplementary Table 8, read-out: In vitro IC50

C=C[C@H]1C[N@@]2CC[C@H]1C[C@@H]2[C@@H](O)c1ccnc2ccc(OC)cc12 [Quinidine]
IC50 (P. falciparum strain K1): 12 ± 3 nM | IC50 (P. falciparum strain Dd2; [9]): 15 ± 1 nM | IC50 [1]: 22 ± 5 nM | IC50 (P. falciparum strain 3D7): 14 ± 1 nM | IC50 [2]: 32 ± 6 nM | IC50 (P. falciparum strain 7G8): 16 ± 4 nM | IC50 (P. falciparum strain D10): 16 ± 1 nM

CCc1nc(N)nc(N)c1-c1ccc(Cl)cc1 [Pyrimethamine]
IC50 (P. falciparum strain K1): > 15000 nM | IC50 [1]: > 15000 nM | IC50 (P. falciparum strain 3D7): 16 ± 3 nM | IC50 [2]: 31 ± 8 nM | IC50 (P. falciparum strain 7G8): > 15000 nM | IC50 (P. falciparum strain D10): 11 ± 2 nM

COC(=O)N1CCN(C(=N)c2cccc(NC(=O)Nc3ccc(S(N)(=O)=O)cc3)c2)CC1 [SC83288 M9]
Share of metabolite from the total combined metabolite peak area ([3]; SC83288 metabolites): 72.3% | Share of metabolite from the total combined metabolite peak area [4]: 69.9% | Share of metabolite from the total combined metabolite peak area ([5]; SC83288 metabolites): 4.8% | Share of metabolite from the total combined metabolite peak area ([6]; SC83288 metabolites): 69% | Share of metabolite from the total combined metabolite peak area ([7]; SC83288 metabolites): 82%

N=C(c1cccc(NC(=O)Nc2ccc(S(=O)(=O)NCc3ccc(S(N)(=O)=O)cc3)cc2)c1)N1CCN(Cc2ccncc2)CC1 [SC82687]
Solubility in H2O (Solubility in water): 32 µg/mL (≈ 48.3 µM) | IC50 (P. falciparum strain Dd2; [10]): 995 nM

CCCN1CCN(C(=N)c2cccc(NC(=O)Nc3ccc(S(=O)(=O)NCc4ccc(S(N)(=O)=O)cc4)cc3)c2)CC1 [SC82367]
Solubility in H2O (Solubility in water): > 1000 µg/mL | Papp (CACO 2 cells): 5.40 10-6 cm s-1 | IC50 (P. falciparum strain Dd2; [10]): 7 nM

N=C(c1cccc(NC(=O)Nc2ccc(S(=O)(=O)c3ccc(Br)cc3)cc2)c1)N1CCC(O)CC1 [SC77215]
IC50 (P. falciparum strain Dd2; [11]): 68 nM | Outcome: decrease of parasitemia (Plasmodium vinckei; 20 mg kg-1 i.p. 1x4 days): 45%

N=C(c1cccc(NC(=O)Nc2ccc(S(N)(=O)=O)cc2)c1)N1CCNCC1 [metabolite 2]
IC50 (P. falciparum strain Dd2; major metabolite, read-out: IC50, antiplasmodial activity in vitro): 5000 nM | Share of metabolite from the total combined metabolite peak area ([3]; SC81458 metabolites): 7.6% | Share of metabolite from the total combined metabolite peak area ([3]; SC83288 metabolites): 5.4% | Share of metabolite from the total combined metabolite peak area ([5]; SC81458 metabolites): 1.6% | Share of metabolite from the total combined metabolite peak area ([6]; SC81458 metabolites): 0.3% | Share of metabolite from the total combined metabolite peak area ([6]; SC83288 metabolites): 0.3% | Share of metabolite from the total combined metabolite peak area ([7]; SC81458 metabolites): 4.7% | Share of metabolite from the total combined metabolite peak area ([7]; SC83288 metabolites): 0.3%

CC(=O)N1CCN(C(=N)c2cccc(NC(=O)Nc3ccc(S(=O)(=O)NCc4ccc(S(N)(=O)=O)cc4)cc3)c2)CC1 [SC83287]
Solubility in H2O (Solubility in water): 10 µg/mL (≈ 16.3 µM) | IC50 (P. falciparum strain Dd2; [10]): 5000 nM

N=C(c1cccc(NC(=O)Nc2ccc(S(=O)(=O)NCc3ccc(S(N)(=O)=O)cc3)cc2)c1)N1CCOCC1 [SC87507]
Papp (CACO 2 cells): 1.23 10-6 cm s-1 | IC50 (P. falciparum strain Dd2; [10]): 139 nM

C=C[C@H]1C[N@@]2CC[C@H]1C[C@H]2[C@H](O)c1ccnc2ccc(OC)cc12 [Quinine]
IC50 (P. falciparum strain K1): 46 ± 40 nM | IC50 (P. falciparum strain Dd2; [9]): 100 ± 10 nM | IC50 [1]: 62 ± 10 nM | IC50 (P. falciparum strain 3D7): 14 ± 20 nM | IC50 [2]: 182 ± 27 nM | IC50 (P. falciparum strain 7G8): 70 ± 17 nM | IC50 (P. falciparum strain D10): 58 ± 50 nM

N=C(c1cccc(NC(=O)Nc2ccc(S(=O)(=O)NCc3ccc(S(N)(=O)=O)cc3)cc2)c1)N1CCNCC1 [SC82904]
IC50 (P. falciparum strain Dd2; [11]): 99 nM | Outcome (Plasmodium vinckei; 30 mg kg-1 i.p. 1x4 days): no complete clearance | Outcome: decrease of parasitemia (Plasmodium vinckei; 30 mg kg-1 i.p. 1x4 days): > 80%

CCCCCN1CCN(C(=N)c2cccc(NC(=O)Nc3ccc(S(=O)(=O)NCc4ccc(S(N)(=O)=O)cc4)cc3)c2)CC1 [SC82833]
Solubility in H2O (Solubility in water): 100 µg/mL (≈ 156 µM) | IC50 (P. falciparum strain Dd2; [10]): 13 nM

N=C(c1cccc(NC(=O)Nc2ccc(S(=O)(=O)NCc3ccc(S(N)(=O)=O)cc3)cc2)c1)N1CCN(C=O)CC1 [SC83288 M8]
Share of metabolite from the total combined metabolite peak area ([3]; SC83288 metabolites): 0.2% | Share of metabolite from the total combined metabolite peak area [4]: 0.9% | Share of metabolite from the total combined metabolite peak area ([5]; SC83288 metabolites): 0.5% | Share of metabolite from the total combined metabolite peak area ([6]; SC83288 metabolites): 0.6% | Share of metabolite from the total combined metabolite peak area ([7]; SC83288 metabolites): 0.1%

N=C(N)c1cccc(NC(=O)Nc2cccc(C(=N)N)c2)c1 [amicarbalide, reference compound]
solubility (Solubility in water; water): 100 µg/mL (≈ 337 µM) | IC50 (P. falciparum strain Dd2; Plasmodium falciparum, DD2, read-out: In vitro IC50, Supplementary Table 2): 10 nM

C[C@@H]1CC[C@H]2[C@@H](C)C(=O)O[C@@H]3O[C@@]4(C)CC[C@@H]1[C@]32OO4 [Artemisinin]
IC50 (P. falciparum strain K1): 3 ± 1 nM | IC50 (P. falciparum strain Dd2; [9]): 2 ± 0.1 nM | IC50 [1]: 3 ± 1 nM | IC50 (P. falciparum strain 3D7): 8 ± 0.3 nM | IC50 [2]: 5 ± 1 nM | IC50 (P. falciparum strain 7G8): 1 ± 0.3 nM | In vitro PCT99.9% ([8]; 10 times IC50, Dd2): 21 ± 3 h | In vitro lag phase ([8]; 10 times IC50, Dd2): zero | In vitro logPRR ([8]; 10 times IC50, Dd2, over 48 h): 4.5±2 | IC50 (P. falciparum strain D10): 9 ± 0.4 nM
